For 38 molecules, emission maximum results are on record in the Deep4Chem optical property database.

A short description of the data set: solvent given as SMILES.

With `CCOC(=O)c1cc(C(=O)OCC)c2ccc(O)cc2n1`, the emission maximum (in CCO) is on record as 474 nm.
As to `CC1=N/C(=C\c2cccc(N(C)C)c2)C(=O)N1CCO`, the emission maximum is listed as 585 nm (in C1CCOC1), 656 nm (in CC#N) and 506 nm (in CCCCCC).
For the molecule `CC(C)[Si](C#Cc1c2cc3ccccc3cc2c(C#C[Si](C)(C)C)c2cc3ccccc3cc12)(C(C)C)C(C)C`, under “in ClCCl”, the emission maximum is reported as 649 nm.
For the molecule `COc1ccc(-c2oc3cccc4c5c(-c6ccc(OC)cc6)/c(=N/S(=O)(=O)C(F)(F)F)oc6cccc(c2c34)c65)cc1`, the emission maximum (in ClC(Cl)Cl) amounted to 612 nm.
`Cc1c2ccc3c(C)[n+](C)ccc3c2cc[n+]1C` showed an emission maximum (in CC#N) of 408 nm.
As for `O=c1c2cc(S(=O)(=O)O)ccc2[nH]c2ccc(S(=O)(=O)O)cc12`, the emission maximum is, setting by setting: (in CS(C)=O) 417 nm; (in O) 417 nm.
Turning to `N#Cc1c(-n2nnc3c2CCC2C(CC3)[C@@H]2CO)n([C@H]2C[C@H](O)[C@@H](CO)O2)c2ncnc(N)c12` (stereo not given in full), the emission maximum (in CO) was 380 nm.
With `CCCCCCCCN1c2ccccc2Sc2cc(/C=C/c3ccc(N(c4ccc(/C=C/c5ccc6c(c5)Sc5ccccc5N6CCCCCCCC)cc4)c4ccc(/C=C/c5ccc(/C=C/c6ccc(N(c7ccc(/C=C/c8ccc(N(c9ccccc9)c9ccccc9)cc8)cc7)c7ccc(/C=C/c8ccc(N(c9ccccc9)c9ccccc9)cc8)cc7)cc6)c6nsnc56)cc4)cc3)ccc21`, the emission maximum runs as follows: (in C1CCOC1) 653 nm; (in CCOC(C)=O) 646 nm; (in CN(C)C=O) 749 nm; (in Cc1ccccc1) 620 nm; (in ClC(Cl)Cl) 668 nm; (in ClCCl) 708 nm.
With `Nc1cccc2cccc(N)c12`, the emission maximum was determined as 413 nm (in CC#N), 427 nm (in CO), 411 nm (in CS(C)=O) and 403 nm (in Cc1ccccc1).
For `Cc1ccccc1C1CC(=O)Oc2c1c1nc3ccccc3nc1c1ccccc21` (stereo not given), the emission maximum (in ClC(Cl)Cl) came to 434 nm.
With `COc1ccc(C2=Cc3cc4ccccc4cc3P2(=O)c2ccccc2)cc1` (stereo not given), under “in ClCCl”, the emission maximum amounted to 448 nm.
On to `N#Cc1c(-n2c3ccc(-c4ccccc4)cc3c3cc(-c4ccccc4)ccc32)c(-n2c3ccccc3c3ccccc32)c(-n2c3ccc(-c4ccccc4)cc3c3cc(-c4ccccc4)ccc32)c(-n2c3ccccc3c3ccccc32)c1-n1c2ccc(-c3ccccc3)cc2c2cc(-c3ccccc3)ccc21`, for which the emission maximum (in Cc1ccccc1) stood at 492 nm.
Consider `CNc1ncc2nc(C(=O)OC)n(Cc3ccccc3)c2n1`, for which the emission maximum reads like this: (in C1COCCO1) 405 nm; (in CC#N) 413 nm; (in CO) 429 nm; (in ClCCl) 403 nm.
In turn, `COCCC1=Cc2nc1ccc1[nH]c(cc1CCOC)c1nc(c(N3C(=O)CCCC3=O)cc3[nH]c2cc3CCOC)C(CCOC)=C1` registered an emission maximum (in Cc1ccccc1) of 646 nm.
The molecule `COc1cc(C=C(C#Cc2ccccc2)C#Cc2ccccc2)c(OC)cc1C=C(C#Cc1ccccc1)C#Cc1ccccc1` yielded an emission maximum (in ClC(Cl)Cl) of 522 nm.
`CN(C)c1ccc2nc(-c3ccccc3)c(=O)oc2c1`: for the setting “in c1ccccc1”, the emission maximum was found to be 500 nm.
As to `CCCCCCN1C(=O)C(c2ccc(-n3c4ccccc4c4ccccc43)cc2)=C(c2ccc(-n3c4ccccc4c4ccccc43)cc2)C1=O`, the emission maximum was 626 nm (in ClC(Cl)Cl) and 591 nm (in c1ccc2c(c1)c1ccccc1n2-c1ccc(-c2ccc(-n3c4ccccc4c4ccccc43)cc2)cc1).
Regarding `COCCOc1cc(C=O)c(OCCOC)cc1C=O`, the emission maximum was determined as 478 nm (in CC(C)(C)O); 479 nm (in CC(C)CO); 479 nm (in CC(C)O); 462 nm (in CCCCO); 463 nm (in CCCO); 464 nm (in CCO). This molecule also had an emission maximum (in CN(C)C=O) of 465 nm; an emission maximum (in CNC=O) of 450 nm; an emission maximum (in CO) of 466 nm; an emission maximum (in NC=O) of 456 nm; an emission maximum (in O) of 495 nm.
Molecule `CC1(C)c2cc(-n3c4ccccc4c4ccccc43)ccc2N(c2ccc(-c3cc(-c4ccccc4)nc(-c4ccccc4)n3)cc2)c2ccc(-n3c4ccccc4c4ccccc43)cc21` had an emission maximum (in Cc1ccccc1) of 494.44 nm.
Consider `CC1(C)C(/C=C/c2cc3ccc(O)cc3oc2=O)=[N+](CCCS(=O)(=O)[O-])c2ccccc21`, for which the emission maximum is given as 642 nm (in CCO), 649 nm (in CS(C)=O) and 620 nm (in O).
As to `Cc1cc2sccc2c2[nH]c3ccccc3c12`, under “in ClCCl”, the emission maximum was 346 nm.
For `CCC1(CC)c2ccccc2-c2c1c1c(c3c2C(CC)(CC)c2cc(B(c4c(C)cc(C)cc4C)c4c(C)cc(C)cc4C)ccc2-3)C(CC)(CC)c2ccccc2-1`, the emission maximum runs as follows: (in C1CCOC1) 385 nm; (in CC#N) 404 nm; (in CC(C)=O) 395 nm; (in CCCCCC) 372 nm; (in ClC(Cl)Cl) 387 nm.
For the molecule `CC(C)(C)c1ccc2c(c1)c1cc(C(C)(C)C)ccc1n2-c1ccc(C#Cc2ccc(C#Cc3ccc(C=C(C#N)C#N)cc3)cc2)cc1`, the emission maximum (in ClCCl) amounted to 474 nm.
Turning to `CCOC(=O)C1CC(c2c(C#N)c(C)nn2-c2ccccc2)=CN1c1ccc(Br)cc1` (stereo not given), the emission maximum by setting is: (in C1CCOC1) 480 nm; (in C1COCCO1) 480 nm; (in CC#N) 488 nm; (in CCCCCCC) 455 nm; (in CCO) 490 nm; (in O) 495 nm. Further, the emission maximum is given as 492 nm (in OCC(O)CO) and 495 nm (in OCCO).
As to `c1ccc(-c2ccc3c(c2)c2cc(-c4ccccc4)ccc2n3-c2ccc3c(c2)c2cc(-n4c5ccc(-c6ccccc6)cc5c5cc(-c6ccccc6)ccc54)ccc2n3-c2ccc(-c3nc(-c4ccccc4)nc(-c4ccccc4)n3)cc2)cc1`, the emission maximum reads like this: (in Cc1ccccc1) 457 nm; (in O=P(c1ccccc1)(c1ccccc1)c1ccccc1Oc1ccccc1P(=O)(c1ccccc1)c1ccccc1) 480 nm.
Consider `COc1ccc(/C=N/c2cc(C(C)C)c(O)cc2C)cc1`, for which the emission maximum runs as follows: (in C1CCCCC1) 404 nm; (in C1CCOC1) 408 nm; (in C1COCCO1) 407 nm; (in CC#N) 411 nm; (in CC(C)(C)O) 411 nm; (in CC(C)O) 413 nm. The emission maximum by setting is: (in CCCCCC) 401 nm; (in CCCCO) 414 nm; (in CCO) 414 nm; (in CCOC(C)=O) 407 nm; (in CN(C)C=O) 413 nm; (in CO) 417 nm. Moreover, the emission maximum reads like this: (in CS(C)=O) 417 nm; (in ClC(Cl)Cl) 413 nm; (in ClCCl) 413 nm; (in O) 440 nm; (in OCCO) 426 nm.
On to `COc1cc2c3c(c4cc(OC)c(OC)c(OC)c4c2c(OC)c1OC)=[N+]1C(=C(c2c(C)cc(C)cc2C)c2cc4c5cc(OC)c(OC)c(OC)c5c5c(OC)c(OC)c(OC)cc5c4n2[B-]1(F)F)C=3`, for which the emission maximum (in C1CCCCC1) is given as 749 nm; the emission maximum (in C1CCOC1) came out at 763 nm; the emission maximum (in CC#N) amounted to 755 nm; the emission maximum (in Cc1ccccc1) came out at 767 nm; the emission maximum (in ClCCl) was 771 nm.
`CCn1c(-c2ccc(-c3ccc4c(c3)C(C)(C)c3ccccc3-4)cc2)c(-c2ccc3ccccc3c2)c(-c2ccc3ccccc3c2)c1-c1ccc(-c2ccc3c(c2)C(C)(C)c2ccccc2-3)cc1` registered an emission maximum (in CCOC(C)=O) of 442 nm.
In turn, `N#Cc1c(N2CCCCC2)cc(-c2ccc(Br)s2)c2c1CCc1ccccc1-2` yielded an emission maximum (in C1CCOC1) of 493 nm.
With `Cc1cc(=O)oc2cc3c4ccccc4c4ccccc4c3cc12`, the emission maximum by setting is: (in C1CCOC1) 410 nm; (in CC#N) 419 nm; (in CO) 420 nm; (in CS(C)=O) 418 nm; (in Cc1ccccc1) 410 nm; (in ClC(Cl)Cl) 415 nm.
`CC(C)(C)c1ccc2c(c1)c1cc(C(C)(C)C)ccc1n2-c1cc(N2c3ccccc3C(c3ccccc3)(c3ccccc3)c3ccccc32)cc(-n2c3ccc(C(C)(C)C)cc3c3cc(C(C)(C)C)ccc32)c1C#N` came in with an emission maximum (in Cc1ccccc1) of 458 nm.
Consider `CN(C)c1ccc(/C=C/c2ccc([N+](=O)[O-])c(O)c2)cc1`, for which the emission maximum runs as follows: (in C1CCCCC1) 529 nm; (in C1COCCO1) 633 nm; (in CCCCCCC) 523 nm; (in Cc1ccccc1) 605 nm.
In the case of `O=Cc1cc(C=O)c2ccc3c(N4CCCCC4)cc(N4CCCCC4)c4ccc1c2c43`, the emission maximum by setting is: (in C1COCCO1) 585 nm; (in CC#N) 602 nm; (in CC(C)=O) 598 nm; (in CCCCCC) 557 nm; (in CCO) 609 nm; (in CCOC(C)=O) 587 nm. For the same molecule, the emission maximum runs as follows: (in CO) 613 nm; (in CS(C)=O) 609 nm; (in Cc1ccccc1) 582 nm; (in ClCCl) 602 nm.
Take `c1ccc(-n2c3ccccc3c3cc(-n4ccc5cc(-c6ccc7c(c6)C(c6ccccc6)(c6ccccc6)c6ccccc6-7)ccc54)ccc32)cc1`: the emission maximum (in ClCCl) came out at 378 nm.
Consider `CC/[NH+]=c1\cc2oc3cc(NCCC(=O)NCC(=O)OC)c4ccccc4c3nc-2cc1C`, for which the emission maximum by setting is: (in CCO) 644 nm; (in O) 652 nm.
With `Cc1cc(C)c(B2c3cc(C(C)(C)C)cc4ccc5ccc6cc(C(C)(C)C)cc2c6c5c34)c(C)c1`, the emission maximum (in C1CCCCC1) turned out to be 430 nm.
Turning to `COc1c(C(C)=O)c(=O)oc2cc(N(C)C)ccc12`, where the note is “in ClCCl”, the emission maximum was found to be 419 nm.
Molecule `CCCCc1ccc(-n2c3c(c4c2c2c(n4-c4ccc(CCCC)cc4)-c4ccc(C(F)(F)F)cc4NB2c2ccccc2)B(c2ccccc2)Nc2cc(C(F)(F)F)ccc2-3)cc1` gave an emission maximum (in Cc1ccccc1) of 413 nm.
